Strand notation (5' to 3'): a small letter for the sugar, then the base; units joined by * are phosphorothioate-linked, units joined directly phosphodiester-linked; [ ] holds rarer units or linkages, { } end groups; capitals alone tell only the bases. e = 2'-O-(2-methoxyethyl) (MOE); k = constrained ethyl (cEt); [5mC] = 5-methylcytosine; d = 2'-deoxy (DNA); m = 2'-O-methyl
These substances were tested on Yap1 mRNA (assay: Antisense inhibition of human Yap1 in SNU-449 cells by modified oligonucleotides, single dose (Example 5, RTS36584)). Settings: Table 39; SNU-449 cells, 10,000 cells per well, free uptake, 2,000 nM oligonucleotide, approx. 48 hours; RTS36584; normalized to RIBOGREEN; Yap1 mRNA relative to untreated control.
Format: cell-based
Method in brief: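 Each modified oligonucleotide is applied by free uptake to SNU-449 cultures at 2,000 nM, and total RNA is harvested around 48 h later. Yap1 transcript, quantified with the RTS36584 set and corrected for RIBOGREEN RNA content, is given as % UTC. Asterisks mark sequences overlapping the amplicon.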
“1198423 (kT*d[5mC]*dT*dT*dA*dT*dA*dT*dG*dG*dT*kT*eT*kT*eG*kT) [Compound 1198423]” was tested, and the “YAP1 (% UTC)” value was 10 % UTC. For “1198421 (kT*dT*dA*dT*dA*dT*dG*dG*dT*dT*dT*kT*eG*kT*eG*kT; antisense) [Compound 1198421]”, the “YAP1 (% UTC)” value was 36 % UTC. “1198409 (kA*dG*dT*dG*d[5mC]*dT*dT*dT*dG*dG*dA*kA*eG*kA*eT*k[5mC]; antisense) [Compound 1198409]” was tested, and the “YAP1 (% UTC)” value was 19 % UTC. With “1198414 (kA*dT*dT*dT*dA*dG*dG*dA*dT*dG*d[5mC]*kA*eT*kG*eG*kT) [Compound 1198414]” the “YAP1 (% UTC)” value was 20 % UTC. In the case of “1198399 (kA*dG*d[5mC]*dA*d[5mC]*dT*dT*dT*dT*dA*d[5mC]*kA*eT*kT*eA*kG; antisense) [Compound 1198399]”, the “YAP1 (% UTC)” value is reported as 35 % UTC.

Same assay, conditions: Table 40 (separate experiment); SNU-449 cells, 10,000 cells per well, free uptake, 2,000 nM oligonucleotide, approx. 48 hours; RTS36584; normalized to RIBOGREEN; Yap1 mRNA relative to untreated control
In the case of “1198778 (kA*eT*kA*dT*dT*dG*d[5mC]*dA*dA*dT*d[5mC]*dT*eG*eT*k[5mC]*kT; antisense) [Compound 1198778]”, the “YAP1 (% UTC)” value is reported as 55 % UTC. For “1198745 (k[5mC]*eA*k[5mC]*dT*dT*dT*dT*dA*d[5mC]*dA*dT*dT*eA*eG*kG*kA; antisense) [Compound 1198745]”, the “YAP1 (% UTC)” value was 57 % UTC.

Same assay, conditions: Table 41; SNU-449 cells, 10,000 cells per well, free uptake, 2,000 nM modified oligonucleotide, approximately 48 hours; RTS36584; normalized to RIBOGREEN; Yap1 mRNA relative to untreated control cells
In the case of “1198671 (antisense kT*kT*dT*dA*dG*dG*dA*dT*dG*d[5mC]*dA*dT*kG*eG*kT*eT) [Compound 1198671]”, the “YAP1 (% UTC)” value is reported as 26 % UTC. For “1198657 (kA*kG*d[5mC]*dA*d[5mC]*dT*dT*dT*dT*dA*d[5mC]*dA*kT*eT*kA*eG; antisense) [Compound 1198657]”, the “YAP1 (% UTC)” value was 95 % UTC. For “1198668 (antisense kA*kT*dA*dG*dT*dG*d[5mC]*dT*dT*dT*dG*dG*kA*eA*kG*eA) [Compound 1198668]”, the “YAP1 (% UTC)” value was 72 % UTC. In the case of “1198677 (antisense kA*kT*dT*d[5mC]*dA*dG*dA*dT*dT*dT*dA*dG*kG*eA*kT*eG) [Compound 1198677]”, the “YAP1 (% UTC)” value is reported as 87 % UTC. For “1198773 (kA*e[5mC]*kT*d[5mC]*dT*dT*dA*dT*dA*dT*dG*dG*eT*eT*kT*kT; antisense) [Compound 1198773]”, the “YAP1 (% UTC)” value was 58 % UTC.

Same assay, conditions: Table 42 (separate experiment); SNU-449 cells, 10,000 cells per well, free uptake, 2,000 nM modified oligonucleotide, approximately 48 hours; RTS36584; normalized to RIBOGREEN; Yap1 mRNA relative to untreated control cells
With “1198240 (kT*kT*dA*dG*dG*dA*dT*dG*d[5mC]*dA*dT*eG*eG*eT*kT*kT) [Compound 1198240]” the “YAP1 (% UTC)” value was 43 % UTC. With “1198234 (kG*k[5mC]*dT*dT*dT*dG*dG*dA*dA*dG*dA*eT*e[5mC]*eT*kG*kA) [Compound 1198234]” the “YAP1 (% UTC)” value was 45 % UTC.

Same assay, conditions: Table 43 experiment; SNU-449 cells, 10,000 cells per well, free uptake, 2,000 nM, approximately 48 hours; RTS36584; Yap1 mRNA normalized to RIBOGREEN, relative to untreated control cells
“1198463 (antisense kA*kT*dG*dG*dA*dA*dA*dT*dT*dG*dT*e[5mC]*kT*e[5mC]*kA*eT) [Compound 1198463]” was tested, and the “YAP1 (% UTC)” value was 59 % UTC. For “1198481 (antisense k[5mC]*kT*dT*dT*dT*dA*d[5mC]*dA*dT*dT*dA*eG*kG*eA*kA*e[5mC]) [Compound 1198481]”, the “YAP1 (% UTC)” value was 72 % UTC. For “1198275 (kT*kA*dA*dG*dG*dT*dT*dT*d[5mC]*d[5mC]*d[5mC]*eA*eG*eA*kT*kT; antisense) [Compound 1198275]”, the “YAP1 (% UTC)” value was 52 % UTC. With “1198471 (antisense kA*kT*dA*dT*dT*dA*dG*dA*dG*dT*dA*eT*kG*eT*kG*eG) [Compound 1198471]” the “YAP1 (% UTC)” value was 21 % UTC. For “1198282 (kA*kG*dA*d[5mC]*dT*dA*dA*dG*dT*dA*dA*eG*eG*eT*kT*kT; antisense) [Compound 1198282]”, the “YAP1 (% UTC)” value was 58 % UTC.

Same assay, conditions: Table 44 experiment; SNU-449 cells, 10,000 cells per well, free uptake, 2,000 nM, approximately 48 hours; RTS36584; Yap1 mRNA normalized to RIBOGREEN, relative to untreated control cells
With “1198499 (kT*kT*dT*dA*dG*dG*dA*dT*dG*d[5mC]*dA*eT*kG*eG*kT*eT; antisense) [Compound 1198499]” the “YAP1 (% UTC)” value was 13 % UTC. “1198489 (antisense kT*kT*dG*dG*dA*dA*dG*dA*dT*d[5mC]*dT*eG*kA*eA*kA*e[5mC]) [Compound 1198489]” was tested, and the “YAP1 (% UTC)” value was 50 % UTC.

Same assay, conditions: Table 45; Yap1 mRNA as percent of untreated control, SNU-449 cells, single dose
For “1198941 (kT*kT*dA*dT*dA*dT*dG*dG*dT*dT*dT*kT*dG*kT*dG*kT; antisense) [Compound 1198941]”, the “YAP1 (% UTC)” value was 35 % UTC. In the case of “1198898 (kA*kT*dA*dT*dG*dG*dA*dA*dA*dT*dT*kG*dT*k[5mC]*dT*k[5mC]; antisense) [Compound 1198898]”, the “YAP1 (% UTC)” value is reported as 53 % UTC.

Same assay, conditions: Table 46; Yap1 mRNA as percent of untreated control, SNU-449 cells, single dose
For “1198844 (kA*kT*dA*dG*dT*dG*d[5mC]*dT*dT*dT*dG*kG*eA*kA*eG*kA; antisense) [Compound 1198844]”, the “YAP1 (% UT)” value was 56 % UT. In the case of “1198840 (kG*k[5mC]*dT*dT*dT*dG*dG*dA*dA*dG*dA*kT*e[5mC]*kT*eG*kA; antisense) [Compound 1198840]”, the “YAP1 (% UT)” value is reported as 26 % UT. With “1198855 (kT*kT*dA*dT*dA*dT*dG*dG*dT*dT*dT*kT*eG*kT*eG*kT; antisense) [Compound 1198855]” the “YAP1 (% UT)” value was 30 % UT.

Same assay, conditions: Table 48; Yap1 mRNA level relative to untreated control; modified oligonucleotides targeting SEQ ID NO.: 1 and 2
“1198296 (kT*kT*kA*dG*dA*dG*dT*dA*dT*dG*dT*dG*kG*e[5mC]*kA*eA; antisense) [Compound 1198296]” was tested, and the “YAP1 (% UT)” value was 29 % UT. For “1198315 (kT*kT*kA*dA*dG*d[5mC]*dA*d[5mC]*dT*dT*dT*dT*kA*e[5mC]*kA*eT; antisense) [Compound 1198315]”, the “YAP1 (% UT)” value was 85 % UT. “1198295 (kT*kA*kG*dA*dG*dT*dA*dT*dG*dT*dG*dG*k[5mC]*eA*kA*eT; antisense) [Compound 1198295]” was tested, and the “YAP1 (% UT)” value was 15 % UT. In the case of “1197219 (antisense kA*kA*k[5mC]*dT*dT*dT*dA*dA*dA*dG*dT*dG*dT*kA*kT*kG) [Compound 1197219]”, the “YAP1 (% UT)” value is reported as 71 % UT. With “1198333 (kA*kT*kT*d[5mC]*dA*dG*dA*dT*dT*dT*dA*dG*kG*eA*kT*eG; antisense) [Compound 1198333]” the “YAP1 (% UT)” value was 77 % UT.

Same assay, conditions: Table 49; Yap1 mRNA level relative to untreated control; modified oligonucleotides targeting SEQ ID NO.: 1 and 2
For “1198305 (kG*kA*kG*dG*dT*dA*dT*dA*dA*d[5mC]*dT*dG*kG*eG*k[5mC]*eA; antisense) [Compound 1198305]”, the “YAP1 (% UT)” value was 78 % UT. For “1198369 (kT*kT*kA*dG*dA*d[5mC]*dT*dA*dA*dG*dT*dA*kA*eG*kG*eT; antisense) [Compound 1198369]”, the “YAP1 (% UT)” value was 51 % UT. For “1198338 (k[5mC]*kT*k[5mC]*dT*dT*dA*dT*dA*dT*dG*dG*dT*kT*eT*kT*eG; antisense) [Compound 1198338]”, the “YAP1 (% UT)” value was 24 % UT. “1198340 (kA*kA*k[5mC]*dT*d[5mC]*dT*dT*dA*dT*dA*dT*dG*kG*eT*kT*eT; antisense) [Compound 1198340]” was tested, and the “YAP1 (% UT)” value was 123 % UT.

Same assay, conditions: Table 50; Yap1 mRNA remaining as percent of untreated control (UT), SNU-449 cells, single dose
“1198596 (antisense k[5mC]*kT*k[5mC]*dT*dT*dA*dT*dA*dT*dG*dG*dT*kT*kT*kT*eG) [Compound 1198596]” was tested, and the “YAP1 (% UT)” value was 16 % UT. In the case of “1198564 (antisense kA*kA*k[5mC]*dA*d[5mC]*dT*dG*dA*dG*dG*dT*dA*kT*kA*kA*e[5mC]) [Compound 1198564]”, the “YAP1 (% UT)” value is reported as 44 % UT. With “1198619 (kT*kA*kA*dG*dG*dT*dT*dT*d[5mC]*d[5mC]*d[5mC]*dA*kG*kA*kT*eT) [Compound 1198619]” the “YAP1 (% UT)” value was 53 % UT.

Same assay, conditions: Table 51; Yap1 mRNA remaining as percent of untreated control (UT), SNU-449 cells, single dose
For “1197279 (kT*kT*kA*dG*mA*d[5mC]*dT*dA*dA*dG*dT*dA*dA*kG*kG*kT) [Compound 1197279]”, the “YAP1 (% UT)” value was 54 % UT. With “1197307 (kA*kT*kA*dT*mU*dG*d[5mC]*dA*dA*dT*d[5mC]*dT*dG*kT*k[5mC]*kT; antisense) [Compound 1197307]” the “YAP1 (% UT)” value was 88 % UT. In the case of “1197259 (kA*kT*kA*dT*mG*dG*dT*dT*dT*dT*dG*dT*dG*kT*kG*kT) [Compound 1197259]”, the “YAP1 (% UT)” value is reported as 59 % UT.

Same assay, conditions: Table 52; Yap1 mRNA, modified oligonucleotides targeting SEQ ID NO: 1 and 2
In the case of “1200854 (kT*kA*kT*dG*dT*mA*dA*dT*dA*dT*dT*dG*d[5mC]*kA*kA*kT; antisense) [Compound 1200854]”, the “YAP1 (% UT)” value is reported as 91 % UT. In the case of “1200850 (kT*kA*kA*dT*dA*mU*dT*dG*d[5mC]*dA*dA*dT*d[5mC]*kT*kG*kT; antisense) [Compound 1200850]”, the “YAP1 (% UT)” value is reported as 83 % UT. In the case of “1200848 (kA*kT*kA*dT*dT*mG*d[5mC]*dA*dA*dT*d[5mC]*dT*dG*kT*k[5mC]*kT; antisense) [Compound 1200848]”, the “YAP1 (% UT)” value is reported as 58 % UT. In the case of “1200836 (kT*k[5mC]*kA*dG*dA*mU*dT*dT*dA*dG*dG*dA*dT*kG*k[5mC]*kA; antisense) [Compound 1200836]”, the “YAP1 (% UT)” value is reported as 72 % UT. For “1200790 (kT*kG*kG*dA*dA*mA*dT*dT*dG*dT*d[5mC]*dT*d[5mC]*kA*kT*kG; antisense) [Compound 1200790]”, the “YAP1 (% UT)” value was 33 % UT.

Same assay, conditions: Yap1 mRNA, percent of untreated control; modified oligonucleotides targeting SEQ ID NO: 1 and 2; Table 47
With “1197209 (antisense kT*kG*kT*dA*dA*dT*dA*dT*dT*dG*d[5mC]*dA*dA*kT*k[5mC]*kT) [Compound 1197209]” the “YAP1 (% UT)” value was 33 % UT. With “1009327 (kA*kT*kA*dT*dT*dA*dG*dA*dG*dT*dA*dT*dG*kT*kG*kG; antisense) [Compound 1009327]” the “YAP1 (% UT)” value was 27 % UT. With “1198880 (kA*kA*d[5mC]*dT*dT*dT*dA*dA*dA*dG*dT*kG*eT*kA*eT*kG; antisense) [Compound 1198880]” the “YAP1 (% UT)” value was 98 % UT.

Source: patent US11214803B2, “Modulators of YAP1 expression” (Ionis Pharmaceuticals, Inc., priority 2019, dated 2022)
